Laboratory results from US20220112175A1, “PYRIDAZINES HERBICIDAL COMPOUNDS” (SYNGENTA CROP PROTECTION AG, priority 2019, published 2022).

Columns and labels:
Experiment in all cases: Post-emergence efficacy, glasshouse pot test
Assay type in all cases: in vivo
[1] = tested on: Amaranthus palmeri (AMAPA); conditions: 312 h, Application rate 500 g/Ha, post-emergence spray, evaluated after 13 days, read-out: Post-emergence efficacy AMAPA (100=total damage to plant; 0=no damage to plant)
Procedure: (§1) Seeds of a variety of test species were sown in standard soil in pots. After cultivation for 14 days (post-emergence) under controlled conditions in a glasshouse (at 24/16° C., day/night; 14 hours light; 65% humidity), the plants were sprayed with an aqueous spray solution derived from the dissolution of the technical active ingredient formula (I) in a small amount of acetone and a special solvent and emulsifier mixture referred to as IF50 (11.12% Emulsogen EL360 TM+44.44% N-methylpyrrolidone+44.44% Dowanol DPM glycol ether), to create a 50 g/l solution which was then diluted to required concentration using 0.25% or 1% Empicol ESC70 (Sodium lauryl ether sulphate)+1% ammonium sulphate as diluent.
(§2) The test plants were then grown in a glasshouse under controlled conditions (at 24/16° C., day/night; 14 hours light; 65% humidity) and watered twice daily. After 13 days the test was evaluated (100=total damage to plant; 0=no damage to plant).
(§3) Ipomoea hederacea (IPOHE), Euphorbia heterophylla (EPHHL), Chenopodium album (CHEAL), Amaranthus palmeri (AMAPA), Lolium perenne (LOLPE), Digitaria sanguinalis (DIGSA), Eleusine indica (ELEIN), Echinochloa crus-galli (ECHCG), Setaria faberi (SETFA)

[2] = tested on: Chenopodium album (CHEAL); conditions: 312 h, Application rate 500 g/Ha, post-emergence spray, evaluated after 13 days, read-out: Post-emergence efficacy CHEAL (100=total damage to plant; 0=no damage to plant)
Procedure: as §1, §2, §3

[3] = tested on: Digitaria sanguinalis (DIGSA); conditions: 312 h, Application rate 500 g/Ha, post-emergence spray, evaluated after 13 days, read-out: Post-emergence efficacy DIGSA (100=total damage to plant; 0=no damage to plant)
Procedure: as §1, §2, §3

[4] = tested on: Echinochloa crus-galli (ECHCG); conditions: 312 h, Application rate 500 g/Ha, post-emergence spray, evaluated after 13 days, read-out: Post-emergence efficacy ECHCG (100=total damage to plant; 0=no damage to plant)
Procedure: as §1, §2, §3

Eleusine indica (ELEIN) = conditions: 312 h, Application rate 500 g/Ha, post-emergence spray, evaluated after 13 days, read-out: Post-emergence efficacy ELEIN (100=total damage to plant; 0=no damage to plant)
Procedure: as §1, §2, §3

[5] = tested on: Euphorbia heterophylla (EPHHL); conditions: 312 h, Application rate 500 g/Ha, post-emergence spray, evaluated after 13 days, read-out: Post-emergence efficacy EPHHL (100=total damage to plant; 0=no damage to plant)
Procedure: as §1, §2, §3

[6] = tested on: Ipomoea hederacea (IPOHE); conditions: 312 h, Application rate 500 g/Ha, post-emergence spray, evaluated after 13 days, read-out: Post-emergence efficacy IPOHE (100=total damage to plant; 0=no damage to plant)
Procedure: as §1, §2, §3

Lolium perenne (LOLPE) = conditions: 312 h, Application rate 500 g/Ha, post-emergence spray, evaluated after 13 days, read-out: Post-emergence efficacy LOLPE (100=total damage to plant; 0=no damage to plant)
Procedure: as §1, §2, §3

Setaria faberi (SETFA) = conditions: 312 h, Application rate 500 g/Ha, post-emergence spray, evaluated after 13 days, read-out: Post-emergence efficacy SETFA (100=total damage to plant; 0=no damage to plant)
Procedure: as §1, §2, §3

## CC(C)(NC(=O)CC[n+]1ccc(-c2nccs2)cn1)C(=O)O [Compound A15]
[1]
  pest or weed control at 500 g/ha: 100%
[2]
  pest or weed control at 500 g/ha: 100%
[3]
  pest or weed control at 500 g/ha: 100%
[4]
  pest or weed control at 500 g/ha: 100%
Eleusine indica (ELEIN)
  pest or weed control at 500 g/ha: 90%
[5]
  pest or weed control at 500 g/ha: 50%
[6]
  pest or weed control at 500 g/ha: 40%
Lolium perenne (LOLPE)
  pest or weed control at 500 g/ha: 30%
Setaria faberi (SETFA)
  pest or weed control at 500 g/ha: 100%

## CN(CCS(=O)(=O)[O-])C(=O)C[n+]1ccc(-c2ncn(C)n2)cn1 [Compound A6]
[1]
  pest or weed control at 500 g/ha: 90%
[2]
  pest or weed control at 500 g/ha: 80%
[3]
  pest or weed control at 500 g/ha: 90%
[4]
  pest or weed control at 500 g/ha: 90%
Eleusine indica (ELEIN)
  pest or weed control at 500 g/ha: 80%
[5]
  pest or weed control at 500 g/ha: 70%
[6]
  pest or weed control at 500 g/ha: 30%
Lolium perenne (LOLPE)
  pest or weed control at 500 g/ha: 20%
Setaria faberi (SETFA)
  pest or weed control at 500 g/ha: 80%

## CC(C)(NS(=O)(=O)CC[n+]1ccc(-c2nccs2)cn1)C(=O)O [Compound A18]
[1]
  pest or weed control at 500 g/ha: 30%
[2]
  pest or weed control at 500 g/ha: 50%
[3]
  pest or weed control at 500 g/ha: 0%
[4]
  pest or weed control at 500 g/ha: 10%
Eleusine indica (ELEIN)
  pest or weed control at 500 g/ha: 0%
[5]
  pest or weed control at 500 g/ha: 10%
[6]
  pest or weed control at 500 g/ha: 0%
Lolium perenne (LOLPE)
  pest or weed control at 500 g/ha: 0%
Setaria faberi (SETFA)
  pest or weed control at 500 g/ha: 20%

## O=C(O)CNC(=O)C[n+]1ccc(-c2ncsn2)cn1 [Compound A23]
[1]
  pest or weed control at 500 g/ha: 100%
[2]
  pest or weed control at 500 g/ha: 100%
[3]
  pest or weed control at 500 g/ha: 40%
[4]
  pest or weed control at 500 g/ha: 50%
Eleusine indica (ELEIN)
  pest or weed control at 500 g/ha: 70%
[5]
  pest or weed control at 500 g/ha: 90%
[6]
  pest or weed control at 500 g/ha: 90%
Lolium perenne (LOLPE)
  pest or weed control at 500 g/ha: 50%
Setaria faberi (SETFA)
  pest or weed control at 500 g/ha: 80%

## O=C(O)CNS(=O)(=O)CC[n+]1ccc(-c2nccs2)cn1 [Compound A17, 2-[2-(4-thiazol-2-ylpyridazin-1-ium-1-yl)ethylsulfonylamino]acetic acid 2,2,2-trifluoroacetate]
[1]
  pest or weed control at 500 g/ha: 0%
[2]
  pest or weed control at 500 g/ha: 30%
[3]
  pest or weed control at 500 g/ha: 80%
[4]
  pest or weed control at 500 g/ha: 20%
Eleusine indica (ELEIN)
  pest or weed control at 500 g/ha: 10%
[5]
  pest or weed control at 500 g/ha: 20%
[6]
  pest or weed control at 500 g/ha: 10%
Lolium perenne (LOLPE)
  pest or weed control at 500 g/ha: 0%
Setaria faberi (SETFA)
  pest or weed control at 500 g/ha: 20%

## CC(NS(=O)(=O)CC[n+]1ccc(-c2ncsn2)cn1)C(=O)O (stereo not drawn) [Compound A22]
[1]
  pest or weed control at 500 g/ha: 100%
[2]
  pest or weed control at 500 g/ha: 50%
[3]
  pest or weed control at 500 g/ha: 100%
[4]
  pest or weed control at 500 g/ha: 80%
Eleusine indica (ELEIN)
  pest or weed control at 500 g/ha: 100%
[5]
  pest or weed control at 500 g/ha: 20%
[6]
  pest or weed control at 500 g/ha: 50%
Lolium perenne (LOLPE)
  pest or weed control at 500 g/ha: 60%
Setaria faberi (SETFA)
  pest or weed control at 500 g/ha: 100%
